Test results published in PubChem BioAssay AID2060484 (Molecular Pharmacology Branch, DTP, NCI, 2025).

System: SUM149PT spheroids with HUVEC/MSC, viability
Assay: Anticancer human tumor SUM149PT cell line growth inhibition [GQUAD];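 also: spheroids exposed to drugs for seven days before readout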;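 as to viability, T/C: percent viability relative to DMSO vehicle control taken as 100%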
Conditions: for IC50: curve of first compound; for viability, T/C: stronger effect = lower value
Outline: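 Viability of tumor cells grown as complex spheroids with endothelial and stromal cells, exposed to drug combinations. Top concentration at or near clinical Cmax (else 10 microM), diluted in half-log increments.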

[1] = second compound 0.0316 µM, first compound 0.0316 µM
[2] = second compound 0.0316 µM, first compound 0.1 µM
[3] = second compound 0.0316 µM, first compound 0.316 µM
[4] = second compound 0.0316 µM, first compound 1 µM
[5] = second compound 0.0316 µM, first compound 3.16 µM
[6] = second compound 0.0316 µM, first compound 10 µM
[7] = second compound 0.1 µM, first compound 0.0316 µM
[8] = second compound 0.1 µM, first compound 0.1 µM
[9] = second compound 0.1 µM, first compound 0.316 µM
[10] = second compound 0.1 µM, first compound 1 µM
[11] = second compound 0.1 µM, first compound 3.16 µM
[12] = second compound 0.1 µM, first compound 10 µM
[13] = second compound 0.316 µM, first compound 0.0316 µM
[14] = second compound 0.316 µM, first compound 0.1 µM
[15] = second compound 0.316 µM, first compound 0.316 µM
[16] = second compound 0.316 µM, first compound 1 µM
[17] = second compound 0.316 µM, first compound 3.16 µM
[18] = second compound 0.316 µM, first compound 10 µM
[19] = second compound 1 µM, first compound 0.0316 µM
[20] = second compound 1 µM, first compound 0.1 µM
[21] = second compound 1 µM, first compound 0.316 µM
[22] = second compound 1 µM, first compound 1 µM
[23] = second compound 1 µM, first compound 3.16 µM
[24] = second compound 1 µM, first compound 10 µM
[25] = second compound 3.16 µM, first compound 0.0316 µM
[26] = second compound 3.16 µM, first compound 0.1 µM
[27] = second compound 3.16 µM, first compound 0.316 µM
[28] = second compound 3.16 µM, first compound 1 µM
[29] = second compound 3.16 µM, first compound 3.16 µM
[30] = second compound 3.16 µM, first compound 10 µM
[31] = second compound 10 µM, first compound 0.0316 µM
[32] = second compound 10 µM, first compound 0.1 µM
[33] = second compound 10 µM, first compound 0.316 µM
[34] = second compound 10 µM, first compound 1 µM
[35] = second compound 10 µM, first compound 3.16 µM
[36] = second compound 10 µM, first compound 10 µM

CC(C)(O)C1CCC(Nc2ccc3ncc(-c4cccc(C(F)(F)F)c4)n3n2)CC1 (stereo unspecified) + Cc1[nH]c2ccc(F)cc2c1-c1nc2c3cccnc3c3ncccc3c2[nH]1
IC50 (second compound 0.0316 µM): 5.92 µM | IC50 (second compound 0.1 µM): > 10 µM | IC50 (second compound 0.316 µM): 3.81 µM | IC50 (second compound 1 µM): 7.9 µM | IC50 (second compound 3.16 µM): 2.36 µM | IC50 (second compound 10 µM): 1.91 µM | viability, T/C [1]: 103% | viability, T/C [2]: 96.5% | viability, T/C [3]: 80.2% | viability, T/C [4]: 63.9% | viability, T/C [5]: 44.6% | viability, T/C [6]: 53.3% | viability, T/C [7]: 90.9% | viability, T/C [8]: 90.4% | viability, T/C [9]: 84.2% | viability, T/C [10]: 67.4% | viability, T/C [11]: 51% | viability, T/C [12]: 55.9% | viability, T/C [13]: 105% | viability, T/C [14]: 97.7% | viability, T/C [15]: 85.5% | viability, T/C [16]: 68.8% | viability, T/C [17]: 43.3% | viability, T/C [18]: 51% | viability, T/C [19]: 97.4% | viability, T/C [20]: 96.4% | viability, T/C [21]: 89.2% | viability, T/C [22]: 68% | viability, T/C [23]: 47.4% | viability, T/C [24]: 52.9% | viability, T/C [25]: 95.5% | viability, T/C [26]: 81.5% | viability, T/C [27]: 85.4% | viability, T/C [28]: 70% | viability, T/C [29]: 40% | viability, T/C [30]: 46.3% | viability, T/C [31]: 99% | viability, T/C [32]: 87.5% | viability, T/C [33]: 79.7% | viability, T/C [34]: 59.9% | viability, T/C [35]: 38.5% | viability, T/C [36]: 43.1%

C#Cc1c(F)ccc2cc(O)cc(-c3ncc4c(N5CC6CCC(C5)N6)nc(OCC56CCCN5CC(F)C6)nc4c3F)c12 (stereo unspecified) + Cc1[nH]c2ccc(F)cc2c1-c1nc2c3cccnc3c3ncccc3c2[nH]1
IC50 (second compound 0.0316 µM): 4.72 µM | IC50 (second compound 0.1 µM): 5.52 µM | IC50 (second compound 0.316 µM): 3.77 µM | IC50 (second compound 1 µM): 5.38 µM | IC50 (second compound 3.16 µM): 5.61 µM | IC50 (second compound 10 µM): 3.43 µM | viability, T/C [1]: 103% | viability, T/C [2]: 96.5% | viability, T/C [3]: 93% | viability, T/C [4]: 72% | viability, T/C [5]: 57.6% | viability, T/C [6]: 38.4% | viability, T/C [7]: 106% | viability, T/C [8]: 98.9% | viability, T/C [9]: 94.7% | viability, T/C [10]: 87.2% | viability, T/C [11]: 54.8% | viability, T/C [12]: 44.2% | viability, T/C [13]: 110% | viability, T/C [14]: 96.5% | viability, T/C [15]: 83.8% | viability, T/C [16]: 74.6% | viability, T/C [17]: 48.5% | viability, T/C [18]: 37% | viability, T/C [19]: 95% | viability, T/C [20]: 90% | viability, T/C [21]: 87.3% | viability, T/C [22]: 76.5% | viability, T/C [23]: 55.9% | viability, T/C [24]: 42.6% | viability, T/C [25]: 96.9% | viability, T/C [26]: 85.2% | viability, T/C [27]: 83.7% | viability, T/C [28]: 76.2% | viability, T/C [29]: 52.9% | viability, T/C [30]: 45% | viability, T/C [31]: 102% | viability, T/C [32]: 82.3% | viability, T/C [33]: 88.2% | viability, T/C [34]: 60.2% | viability, T/C [35]: 52.2% | viability, T/C [36]: 35.6%

CC(=O)O[C@H]1C(=O)[C@@]2(C)[C@H]([C@H](OC(=O)c3ccccc3)[C@]3(O)C[C@H](OC(=O)[C@H](O)[C@@H](NC(=O)c4ccccc4)c4ccccc4)C(C)=C1C3(C)C)[C@]1(OC(C)=O)CO[C@@H]1C[C@@H]2O + Cc1cnc(CNC(=O)c2c(=O)c3ccc(N4CCCN(C)CC4)nc3n3c2sc2ccccc23)cn1
IC50 (second compound 0.0316 µM): < 0.0316 µM | IC50 (second compound 0.1 µM): < 0.0316 µM | IC50 (second compound 0.316 µM): < 0.0316 µM | IC50 (second compound 1 µM): < 0.0316 µM | IC50 (second compound 3.16 µM): < 0.0316 µM | IC50 (second compound 10 µM): < 0.0316 µM | viability, T/C [1]: 25.8% | viability, T/C [2]: 16.3% | viability, T/C [3]: 15.5% | viability, T/C [4]: 9.27% | viability, T/C [5]: 11.8% | viability, T/C [6]: 16.7% | viability, T/C [7]: 26.2% | viability, T/C [8]: 26.1% | viability, T/C [9]: 13.4% | viability, T/C [10]: 13.1% | viability, T/C [11]: 14.7% | viability, T/C [12]: 14.5% | viability, T/C [13]: 30.5% | viability, T/C [14]: 30.4% | viability, T/C [15]: 19% | viability, T/C [16]: 14.6% | viability, T/C [17]: 14.8% | viability, T/C [18]: 19% | viability, T/C [19]: 30.9% | viability, T/C [20]: 24.8% | viability, T/C [21]: 18% | viability, T/C [22]: 16.1% | viability, T/C [23]: 15.2% | viability, T/C [24]: 20.7% | viability, T/C [25]: 32.2% | viability, T/C [26]: 24.8% | viability, T/C [27]: 19.1% | viability, T/C [28]: 16.9% | viability, T/C [29]: 18% | viability, T/C [30]: 19.8% | viability, T/C [31]: 0.13% | viability, T/C [32]: 0.61% | viability, T/C [33]: 1.35% | viability, T/C [34]: 0.64% | viability, T/C [35]: 1.28% | viability, T/C [36]: 1.03%
